According to US20170303574A1, “COMPOUNDS, COMPOSITIONS, AND METHODS FOR MODULATING SWEET TASTE” (Chromocell Corporation, priority 2014, published 2017):
Marks after values point to notes of the source that are not given here.

Legend:
Format in all cases: in vivo, humans
[1] = system: perception of sweet taste of high fructose cornsyrup (HFCS); assay: 2AFC assessment of increase in perceived sweetness of HFCS solution; settings: for Compound concentration with positive 2AFC results: in 5brix HFCS test sample; for Fold increase in perceived sweetness: positive control concentration surpassed divided by test sample concentration (5brix HFCS), approximate; for Sweetener Concentration of positive control surpassed by test sample: test sample 5brix HFCS plus compound, 2AFC sip and spit, panelists n≧15
Procedure: Effect of test compounds on the perception of sweet taste of high fructose cornsyrup (HFCS) two-alternative forced choice method (2AFC). The effect of the test compounds on the perception of the sweet taste of an aqueous solution of sweetener in humans was evaluated using a two-alternative forced choice “sip and spit” method (2AFC). The aqueous sweetener solutions were prepared by adding sucrose equivalent (SE) quantities of high fructose corn syrup (HFCS) (by weight), to water to achieve the desired concentration. The aqueous solutions ranged in pH from pH 2.5-pH 7. Compounds of the invention were first prepared as a 500-fold concentrated stock solution in 100% ethanol. These concentrated stocks were then added to the aqueous sweetener solutions to result in a final ethanol concentration of 0.2%. The control (positive and negative) samples were also normalized to 0.2% ethanol. This level of ethanol was not seen to contribute any perceived sweetness. The 2AFC test used for compound evaluation was a double blinded and randomized test where taste panelists (n≧15) evaluate a pair of sweetener solutions at a time—one sample contains aqueous sweetener solution plus compound (i.e. test) while the other contains aqueous sweetener solution at higher concentration without compound (i.e. positive control). Each test sample was compared against a positive control. For example, if the test sample contained 1× sweetener concentration with compound (e.g. 5brix HFCS with compound), the positive control sample contained a 1.1× sweetener concentration (e.g. 5.5brix HFCS without compound). […] Panelists were instructed not to eat or drink (except water) for at least 1 hour before the test. During the test, panelists were instructed to sip each sample, swirl it around their mouth and then expectorate. After tasting each sample in the pair, panelists were instructed to record the sample that is “sweeter” in taste. Panelists cleansed their palates by rinsing with water, eating a cracker and waiting for an interval of about 5 minutes. All samples were tasted at ambient temperatures. Data were analyzed using binomial probabilities. Approximate levels of sweetness enhancement in column 5 of Table 2 were calculated as follows: Approximate levels of sweetness enhancement=Sweetener concentration of positive control surpassed by the test sample, divided by sweetener concentration for compound-containing sample (e.g.1.3×=6.5brix HFCS/5brix HFCS).

[2] = system: perception of non-sweet taste attributes (such as bitterness); assay: Descriptive analysis (DA) panel: non-sweet taste attributes in lemon lime matrix (spider plots); settings: lemon-lime matrix sweetened with HFCS, pH 7
Procedure: The effect of the test compound on the perception of non-sweet taste attributes (such as bitterness) in a flavored aqueous environment, in the presence of carbohydrate sweeteners, was evaluated using a descriptive analysis methodology with a group of trained panelists, as follows. This occurred as part of DA assessment described previously in Example 3.
The trained panel was then used for a descriptive analysis assessment for Compound 2 and Compound 5 in lemon lime flavored matrix, sweetened with high fructose corn syrup (HFCS), at a test dose of 50 ppm and 20 ppm, respectively.
(§1) All control and variant samples were prepared as described in Example 3. Both control (flavored sweetener solutions without compound) and variant (flavored sweetener solutions with compound) samples were blinded and randomized. Samples were presented in monadic order and panelists were instructed to sip the sample, swirl it in their mouths and expectorate. A total of 7 attributes including sweet, bitter, sour, licorice and thickness were assessed for each sample. After each sample assessment, panelists performed a standard palate cleansing protocol, and observed an inter-sample interval time (ISI). All samples were evaluated at ambient temperatures.
Data was collected and exported electronically utilizing FIZZ sensory software. […]

[3] = system: perception of the sweet taste in a flavored aqueous environment; assay: Descriptive analysis (DA) panel: sweetness enhancement in HFCS sweetened lemon lime matrix; settings: for Fold enhancement of sweetness perception as compared to control sample: vs negative control; for Perceived sweetness (spider plot, vs control sweetener solution): lemon-lime matrix sweetened with HFCS, pH 7
Procedure: The effect of the test compound on the perception of the sweet taste in a flavored aqueous environment, in the presence of carbohydrate sweeteners, was evaluated using a descriptive analysis methodology with a group of trained panelists, as follows.
The panel used in this example was trained to reference sweet attributes in an absolute manner, such that a particular concentration of sweetener is always measured by the panelists at the same point using a 15 cm line scale where each cm represents a 1% increase in sucrose to cover the range of 0% to 15% sucrose. For the rest of the attributes, the panel was trained using a hybrid approach between descriptive analysis methods well-known to those skilled in the art.
The trained panel was then used for a descriptive analysis assessment for Compound 2 and Compound 5 in flavored lemon lime matrix. Compound 2 was assessed at a dose of 50 ppm and Compound 5 was assessed at a dose of 20 ppm for sweetness enhancement in high fructose corn syrup (HFCS) sweetened lemon lime matrix.
The flavored sweetener solutions were prepared by adding sucrose equivalent quantities of HFCS (by weight), to lemon lime matrix to achieve the desired concentration. Compound was first prepared as a 500-fold concentrated stock solution in 100% ethanol. The concentrated stocks were then added to the flavored sweetener solutions to result in a final ethanol concentration of 0.2%. The control (positive and negative) samples were also normalized to 0.2% ethanol. This level of ethanol was not seen to contribute any perceived sweetness
as §1, with “Both” for “All control and variant samples were prepared as described in Example 3. Both”, “sample. For the sweet attribute, panelists made an absolute scoring on a 15 cm line scale where each cm represents a 1% increase in sucrose to cover the range of 0% to 15% sucrose.” for “sample.”
Data was collected and exported electronically utilizing FIZZ sensory software. Data analysis was conducted using SENPAQ version 5.0 software that uses tools such as ANOVA, Fisher's LSD, correlation to determine panel performance as well as significant differences between samples and attributes.
The letter “a” indicates significant differences among the samples at 95% confidence level. Fold enhancement (increase in perceived sweetness) was calculated by dividing the DA panel average intensity score observed for a variant sample by that observed for the negative control sample.

[4] = Compound 5 @ 20 ppm in 6.67brix HFCS lemon lime matrix
[5] = Compound 2 @ 50 ppm in 7.7brix HFCS lemon lime matrix

SMILES | Compound concentration with positive 2AFC results [1] | Fold increase in perceived sweetness [1] | Sweetener Concentration of positive control surpassed by test sample [1] | Other attributes including astringent, licorice and bitter (spider plot, vs control) [2] | Average Sweetness Intensity Score w/ ANOVA (on 15 cm scale) [3, 4] | Fold enhancement of sweetness perception as compared to control sample [3, 4] | Perceived sweetness (spider plot, vs control sweetener solution) [3] | Average Sweetness Intensity Score w/ ANOVA (on 15 cm scale) [3, 5] | Fold enhancement of sweetness perception as compared to control sample [3, 5]
COc1ccc(C2CCc3ccc(O)c(C)c3O2)cc1O (racemic) [Compound 1, 2-(3-hydroxy-4-methoxyphenyl)-8-methylchroman-7-ol] | 35 ppm | >1.2X | 6brix HFCS | – | – | – | – | – | –
COc1ccc(C2CCc3cc(C)c(O)cc3O2)cc1O (racemic) [Compound 4, 2-(3-hydroxy-4-methoxyphenyl)-6-methylchroman-7-ol] | 20 ppm | >1.3X | 6.5brix HFCS | – | – | – | – | – | –
COc1ccc(C2CCc3cc(C)c(O)cc3O2)cc1O (single isomer, unassigned; (-)) [Compound 5, (−)-2-(3-hydroxy-4-methoxyphenyl)-6-methylchroman-7-ol] | 20 ppm | >1.5X | 7.5brix HFCS | observed to be significant | 9.7^a | 1.47X | significant increase in perceived sweetness | – | –
COc1ccc([C@@H]2CCc3ccc(O)c(C)c3O2)cc1O [Compound 2, (S)-2-(3-hydroxy-4-methoxyphenyl)-8-methylchroman-7-ol] | 50 ppm | >1.3X | 6.5brix HFCS | observed to be significant | – | – | significant increase in perceived sweetness | 10.3^a | 1.43X
